From PubChem BioAssay (NCI)
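Interpolation was linear, between the two tested concentrations surrounding the appropriate level; five concentrations were tested over 48 hours in 96-well plates. The concentration for full growth arrest is given as TGI.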

Assays:
Experiment in all cases: growth of human tumour cells (NCI), 48 h
HOP-62 NSCLC = test system: HOP-62 NSCLC
A549 NSCLC = test system: A549 NSCLC
SW-620 colon = test system: SW-620 colon
SF-295 CNS = test system: SF-295 CNS
OVCAR-4 ovarian = test system: OVCAR-4 ovarian
MDA-MB-231 breast = test system: MDA-MB-231 breast
EKVX NSCLC = test system: EKVX NSCLC
SK-MEL-5 melanoma = test system: SK-MEL-5 melanoma
MDA-MB-435 = test system: MDA-MB-435
NCI-H460 lung = test system: NCI-H460 lung
NCI-H522 lung = test system: NCI-H522 lung
SR leukemia = test system: SR leukemia
ACHN renal = test system: ACHN renal
UO-31 renal = test system: UO-31 renal
UACC-62 melanoma = test system: UACC-62 melanoma
TK-10 renal = test system: TK-10 renal
SF-539 CNS = test system: SF-539 CNS
LOX IMVI melanoma = test system: LOX IMVI melanoma
NCI-H226 lung = test system: NCI-H226 lung
MCF7 breast = test system: MCF7 breast
BT-549 breast = test system: BT-549 breast
IGROV1 ovarian = test system: IGROV1 ovarian
OVCAR-3 ovarian = test system: OVCAR-3 ovarian
M14 melanoma = test system: M14 melanoma
SF-268 CNS = test system: SF-268 CNS
MOLT-4 leukemia = test system: MOLT-4 leukemia
HL-60(TB) leukemia = test system: HL-60(TB) leukemia
KM12 colon = test system: KM12 colon
U251 CNS = test system: U251 CNS
786-0 renal = test system: 786-0 renal
MDA-N = test system: MDA-N
RPMI-8226 leukemia = test system: RPMI-8226 leukemia
CCRF-CEM leukemia = test system: CCRF-CEM leukemia
NCI/ADR-RES ovarian = test system: NCI/ADR-RES ovarian
CAKI-1 renal = test system: CAKI-1 renal
SN12C renal = test system: SN12C renal
MALME-3M melanoma = test system: MALME-3M melanoma
K-562 leukemia = test system: K-562 leukemia
HCT-116 colon = test system: HCT-116 colon
COLO 205 colon = test system: COLO 205 colon
T-47D breast = test system: T-47D breast
DU-145 prostate = test system: DU-145 prostate
SNB-75 CNS = test system: SNB-75 CNS
SK-MEL-2 melanoma = test system: SK-MEL-2 melanoma
PC-3 prostate = test system: PC-3 prostate
SK-OV-3 ovarian = test system: SK-OV-3 ovarian
UACC-257 melanoma = test system: UACC-257 melanoma
HCT-15 colon = test system: HCT-15 colon
OVCAR-5 ovarian = test system: OVCAR-5 ovarian
OVCAR-8 ovarian = test system: OVCAR-8 ovarian
NCI-H23 lung = test system: NCI-H23 lung
HT29 colon = test system: HT29 colon
RXF 393 renal = test system: RXF 393 renal
HOP-92 NSCLC = test system: HOP-92 NSCLC
SNB-19 CNS = test system: SNB-19 CNS
SK-MEL-28 melanoma = test system: SK-MEL-28 melanoma
HS 578T breast = test system: HS 578T breast
A498 renal = test system: A498 renal

With `Cc1c(N2C(=O)/C(=C/c3ccc(Cl)cc3)N=C2c2ccccc2)c(=O)n(-c2ccccc2)n1C` as the molecule, how does the TGI (HOP-62 NSCLC) read?
The TGI was > 100 µM.

And the TGI (A549 NSCLC)?
The TGI was 99.4 µM.

What about the TGI (SW-620 colon) of the same molecule?
The TGI was > 100 µM.

What about the TGI (SF-295 CNS) of the same molecule?
Its TGI is > 100 µM.

What about the TGI (OVCAR-4 ovarian) of the same molecule?
The TGI was > 100 µM.

What about the TGI (MDA-MB-231 breast) of the same molecule?
Its TGI is > 100 µM.

What about the TGI (EKVX NSCLC) of the same molecule?
Its TGI is 63.4 µM.

And the TGI (SK-MEL-5 melanoma)?
The TGI was 34.3 µM.

What about the TGI (MDA-MB-435) of the same molecule?
Its TGI is 43.8 µM.

And the TGI (NCI-H460 lung)?
The TGI was > 100 µM.

What about the TGI (NCI-H522 lung) of the same molecule?
The TGI was 44.8 µM.

What about the TGI (SR leukemia) of the same molecule?
The TGI was 76.3 µM.

And the TGI (ACHN renal)?
The TGI was 60.5 µM.

What about the TGI (UO-31 renal) of the same molecule?
The TGI was 93.7 µM.

And the TGI (UACC-62 melanoma)?
Its TGI is 47.1 µM.

What about the TGI (TK-10 renal) of the same molecule?
The TGI was 60.3 µM.

What about the TGI (SF-539 CNS) of the same molecule?
The TGI was 73.6 µM.

What about the TGI (LOX IMVI melanoma) of the same molecule?
Its TGI is 35.6 µM.

And the TGI (NCI-H226 lung)?
The TGI was 96.7 µM.

And the TGI (MCF7 breast)?
The TGI was > 100 µM.

What about the TGI (BT-549 breast) of the same molecule?
Its TGI is > 100 µM.

And the TGI (IGROV1 ovarian)?
Its TGI is 88.5 µM.

What about the TGI (OVCAR-3 ovarian) of the same molecule?
The TGI was > 100 µM.

What about the TGI (M14 melanoma) of the same molecule?
The TGI was > 100 µM.

What about the TGI (SF-268 CNS) of the same molecule?
Its TGI is > 100 µM.

What about the TGI (MOLT-4 leukemia) of the same molecule?
Its TGI is > 100 µM.

And the TGI (HL-60(TB) leukemia)?
Its TGI is 57 µM.

And the TGI (KM12 colon)?
The TGI was > 100 µM.

And the TGI (U251 CNS)?
Its TGI is 96.3 µM.

And the TGI (786-0 renal)?
Its TGI is > 100 µM.

What about the TGI (MDA-N) of the same molecule?
Its TGI is 71.6 µM.

And the TGI (RPMI-8226 leukemia)?
The TGI was 42.9 µM.

And the TGI (CCRF-CEM leukemia)?
The TGI was > 100 µM.

What about the TGI (NCI/ADR-RES ovarian) of the same molecule?
The TGI was > 100 µM.

What about the TGI (CAKI-1 renal) of the same molecule?
The TGI was > 100 µM.

And the TGI (SN12C renal)?
Its TGI is > 100 µM.

What about the TGI (MALME-3M melanoma) of the same molecule?
The TGI was > 100 µM.

What about the TGI (K-562 leukemia) of the same molecule?
The TGI was > 100 µM.

And the TGI (HCT-116 colon)?
Its TGI is > 100 µM.

And the TGI (COLO 205 colon)?
Its TGI is 30.1 µM.

And the TGI (T-47D breast)?
The TGI was > 100 µM.

What about the TGI (DU-145 prostate) of the same molecule?
Its TGI is > 100 µM.

What about the TGI (SNB-75 CNS) of the same molecule?
Its TGI is 80.3 µM.

What about the TGI (SK-MEL-2 melanoma) of the same molecule?
Its TGI is 39.9 µM.

And the TGI (PC-3 prostate)?
The TGI was > 100 µM.

What about the TGI (SK-OV-3 ovarian) of the same molecule?
Its TGI is > 100 µM.

What about the TGI (UACC-257 melanoma) of the same molecule?
Its TGI is 42.8 µM.

And the TGI (HCT-15 colon)?
The TGI was 19.6 µM.

What about the TGI (OVCAR-5 ovarian) of the same molecule?
Its TGI is > 100 µM.

What about the TGI (OVCAR-8 ovarian) of the same molecule?
Its TGI is > 100 µM.

And the TGI (NCI-H23 lung)?
Its TGI is 78.2 µM.

What about the TGI (HT29 colon) of the same molecule?
The TGI was 79.8 µM.

And the TGI (RXF 393 renal)?
Its TGI is 76.8 µM.

What about the TGI (HOP-92 NSCLC) of the same molecule?
Its TGI is 66.6 µM.

Which TGI (HOP-62 NSCLC) does the source give for `CC(C)(C)OC(=O)n1c2ccccc2c2c(=O)nc(N3CCCCC3)sc21` here?
Its TGI is > 100 µM.

What about the TGI (A549 NSCLC) of the same molecule?
Its TGI is > 100 µM.

And the TGI (SW-620 colon)?
Its TGI is > 100 µM.

What about the TGI (SNB-19 CNS) of the same molecule?
The TGI was > 100 µM.

And the TGI (SF-295 CNS)?
Its TGI is > 100 µM.

And the TGI (OVCAR-4 ovarian)?
The TGI was > 100 µM.

What about the TGI (MDA-MB-231 breast) of the same molecule?
The TGI was > 100 µM.

What about the TGI (EKVX NSCLC) of the same molecule?
The TGI was > 100 µM.

And the TGI (SK-MEL-5 melanoma)?
Its TGI is > 100 µM.

And the TGI (MDA-MB-435)?
The TGI was > 100 µM.

And the TGI (NCI-H460 lung)?
The TGI was > 100 µM.

And the TGI (NCI-H522 lung)?
The TGI was > 100 µM.

What about the TGI (SR leukemia) of the same molecule?
The TGI was > 100 µM.

What about the TGI (SK-MEL-28 melanoma) of the same molecule?
Its TGI is > 100 µM.

What about the TGI (ACHN renal) of the same molecule?
The TGI was > 100 µM.

What about the TGI (UO-31 renal) of the same molecule?
The TGI was 44.9 µM.

What about the TGI (UACC-62 melanoma) of the same molecule?
The TGI was > 100 µM.

What about the TGI (TK-10 renal) of the same molecule?
Its TGI is > 100 µM.

And the TGI (SF-539 CNS)?
Its TGI is > 100 µM.

What about the TGI (LOX IMVI melanoma) of the same molecule?
The TGI was > 100 µM.

And the TGI (BT-549 breast)?
Its TGI is > 100 µM.

What about the TGI (IGROV1 ovarian) of the same molecule?
Its TGI is > 100 µM.

What about the TGI (OVCAR-3 ovarian) of the same molecule?
The TGI was > 100 µM.

What about the TGI (M14 melanoma) of the same molecule?
The TGI was > 100 µM.

And the TGI (SF-268 CNS)?
Its TGI is > 100 µM.

What about the TGI (MOLT-4 leukemia) of the same molecule?
The TGI was > 100 µM.

And the TGI (HL-60(TB) leukemia)?
Its TGI is > 100 µM.

What about the TGI (KM12 colon) of the same molecule?
Its TGI is > 100 µM.

And the TGI (U251 CNS)?
The TGI was > 100 µM.

And the TGI (786-0 renal)?
Its TGI is > 100 µM.

And the TGI (MDA-N)?
Its TGI is > 100 µM.

And the TGI (RPMI-8226 leukemia)?
The TGI was > 100 µM.

What about the TGI (HS 578T breast) of the same molecule?
The TGI was > 100 µM.

And the TGI (CCRF-CEM leukemia)?
The TGI was > 100 µM.

What about the TGI (NCI/ADR-RES ovarian) of the same molecule?
The TGI was > 100 µM.

What about the TGI (CAKI-1 renal) of the same molecule?
Its TGI is > 100 µM.

What about the TGI (SN12C renal) of the same molecule?
The TGI was > 100 µM.

And the TGI (MALME-3M melanoma)?
The TGI was > 100 µM.

And the TGI (K-562 leukemia)?
Its TGI is > 100 µM.

And the TGI (COLO 205 colon)?
The TGI was > 100 µM.

And the TGI (T-47D breast)?
Its TGI is > 100 µM.

And the TGI (DU-145 prostate)?
The TGI was > 100 µM.

What about the TGI (SNB-75 CNS) of the same molecule?
The TGI was > 100 µM.

And the TGI (SK-MEL-2 melanoma)?
Its TGI is > 100 µM.

And the TGI (PC-3 prostate)?
Its TGI is > 100 µM.

And the TGI (A498 renal)?
The TGI was > 100 µM.

And the TGI (SK-OV-3 ovarian)?
Its TGI is > 100 µM.

What about the TGI (UACC-257 melanoma) of the same molecule?
Its TGI is > 100 µM.

And the TGI (HCT-15 colon)?
The TGI was > 100 µM.

What about the TGI (OVCAR-5 ovarian) of the same molecule?
The TGI was > 100 µM.

And the TGI (OVCAR-8 ovarian)?
Its TGI is > 100 µM.

What about the TGI (NCI-H23 lung) of the same molecule?
Its TGI is > 100 µM.

And the TGI (HT29 colon)?
Its TGI is > 100 µM.

And the TGI (HOP-92 NSCLC)?
The TGI was > 100 µM.
